Source: patent US10745382B2 (BRISTOL-MYERS SQUIBB COMPANY, priority 2015, dated 2020)

Each compound was assayed against T1, PD-1/PD-L1 (Homo sapiens, UniProt Q9NZQ7) (assay: PD-1/PD-L1 Homogenous Time-Resolved Fluorescence (HTRF) binding assay). Conditions: PD-L1-His 10 nM, PD-1-Ig 20 nM; numeric IC50; read-out: Range or IC50.
T1 construct: made in house; host or cells: HEK293T
Outline: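 Detection by europium cryptate anti-Ig plus APC anti-His (1 nM and 20 nM final) with HTRF signal. Buffer was dPBS, 0.1% BSA, 0.05% Tween-20.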

T1 sequence (Q9NZQ7 with tags, fused parts or gaps): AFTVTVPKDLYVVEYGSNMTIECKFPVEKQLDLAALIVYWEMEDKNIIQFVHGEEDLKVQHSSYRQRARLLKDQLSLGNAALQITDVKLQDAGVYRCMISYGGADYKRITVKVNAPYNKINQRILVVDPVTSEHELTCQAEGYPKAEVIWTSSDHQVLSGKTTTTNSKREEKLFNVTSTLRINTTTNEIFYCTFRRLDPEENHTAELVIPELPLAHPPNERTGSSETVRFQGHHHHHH

| SMILES | IC50 [nM] |
| --- | --- |
| Cc1c(COc2cc(OCc3cncc(C#N)c3)c(C(C)NC(CO)CO)cc2Cl)cccc1-c1cccc(OCCCN2CC[C@@H](O)C2)c1C (stereo partly drawn) [Example 4137, 5-((4-chloro-2-(1-((1,3-dihydroxypropan-2-yl)amino)ethyl)-5-((3′-(3-((R)-3-hydroxypyrrolidin-1-yl)propoxy)-2,2′-dimethyl-[1,1′-biphenyl]-3-yl)methoxy)phenoxy)methyl)nicotinonitrile] | 3 |
| Cc1c(COc2cc(OCc3cncc(C#N)c3)c(CN3CCCC[C@H]3C(=O)O)cc2Cl)cccc1-c1cccc(OCCCNC[C@H](O)CO)c1C [Example 2333, (S)-1-(5-chloro-2-((5-cyanopyridin-3-yl)methoxy)-4-((3′-(3-(((S)-2,3-dihydroxypropyl)amino)propoxy)-2,2′-dimethyl-[1,1′-biphenyl]-3-yl)methoxy)benzyl)piperidine-2-carboxylic Acid] | 0.9 |

Same assay, conditions: PD-L1-His 10 nM, PD-1-Ig 20 nM; value given as range class; read-out: Range or IC50

| SMILES | IC50 [nM] |
| --- | --- |
| Cc1c(COc2cc(OCc3cncc(C#N)c3)c(CNC(CO)CO)cc2Cl)cccc1-c1cccc(Oc2cccc3c2CCNC3=O)c1C [Example 2354, 5-((4-chloro-2-(((1,3-dihydroxypropan-2-yl)amino)methyl)-5-((2,2′-dimethyl-3′-((1-oxo-1,2,3,4-tetrahydroisoquinolin-5-yl)oxy)-[1,1′-biphenyl]-3-yl)methoxy)phenoxy)methyl)nicotinonitrile] | 10 to 100 |
| Cc1c(COc2cc(OCc3cncc(C#N)c3)c(CNC(C)(CO)CO)cc2Cl)cccc1-c1cccc(OCCc2ccccn2)c1Cl [Example 2081, 5-((4-chloro-5-((2′-chloro-2-methyl-3′-(2-(pyridin-2-yl)ethoxy)-[1,1′-biphenyl]-3-yl)methoxy)-2-(((1,3-dihydroxy-2-methylpropan-2-yl)amino)methyl)phenoxy)methyl)nicotinonitrile] | 0.21 to 10 |
| Cc1c(COc2cc(OCc3cncc(C#N)c3)c(CN[C@](C)(CO)C(=O)O)cc2Cl)cccc1-c1cccc(OCCCN2CCC(O)C2)c1C#N (stereo in doubt) [Example 3010, (R)-2-((5-chloro-4-((2′-cyano-3′-(3-((R)-3-hydroxypyrrolidin-1-yl)propoxy)-2-methyl-[1,1′-biphenyl]-3-yl)methoxy)-2-((5-cyanopyridin-3-yl)methoxy)benzyl)amino)-3-hydroxy-2-methylpropanoic Acid] | 0.21 to 10 |
| Cc1cc(OCCCN2CC[C@@H](O)C2)ccc1-c1cccc(COc2cc(OCc3cncc(C#N)c3)c(CN[C@H](CO)C(=O)O)cc2Cl)c1C [Example 1070, (R)-2-((5-chloro-2-((5-cyanopyridin-3-yl)methoxy)-4-((4′-(3-((R)-3-hydroxypyrrolidin-1-yl)propoxy)-2,2′-dimethyl-[1,1′-biphenyl]-3-yl)methoxy)benzyl)amino)-3-hydroxypropanoic Acid] | 0.21 to 10 |
| Cc1c(COc2cc(OCc3cncc(C#N)c3)c(CN[C@@](C)(CO)C(=O)O)cc2Cl)cccc1-c1cccc(OCCCN2CCC(CO)CC2)c1C [Example 2275, (S)-2-((5-chloro-2-((5-cyanopyridin-3-yl)methoxy)-4-((3′-(3-(4-(hydroxymethyl)piperidin-1-yl)propoxy)-2,2′-dimethyl-[1,1′-biphenyl]-3-yl)methoxy)benzyl)amino)-3-hydroxy-2-methylpropanoic Acid] | 0.21 to 10 |
| Cc1c(COc2cc(OCc3cncc(C#N)c3)c(CNC(CO)CO)c(C)c2Cl)cccc1-c1cccc(OCCCN2CC[C@@H](O)C2)c1C [Example 4102, (R)-5-((4-chloro-2-(((1,3-dihydroxypropan-2-yl)amino)methyl)-5-((3′-(3-(3-hydroxypyrrolidin-1-yl)propoxy)-2,2′-dimethyl-[1,1′-biphenyl]-3-yl)methoxy)-3-methylphenoxy)methyl)nicotinonitrile] | 0.21 to 10 |
| N#Cc1cncc(COc2cc(OCc3cccc(-c4cccc(OCCCNC[C@H](O)CO)c4Cl)c3Cl)c(Cl)cc2CNC[C@H](O)CO)c1 [Example 2033, 5-((4-chloro-5-((2,2′-dichloro-3′-(3-(((S)-2,3-dihydroxypropyl)amino)propoxy)-[1,1′-biphenyl]-3-yl)methoxy)-2-((((S)-2,3-dihydroxypropyl)amino)methyl)phenoxy)methyl)nicotinonitrile] | 0.21 to 10 |
| Cc1c(COc2cc(OCc3cncc(C#N)c3)c(C(C)N3C[C@H](O)C[C@H]3C(=O)O)cc2Cl)cccc1-c1cccc(OCCCN2CC[C@@H](O)C2)c1C (stereo partly drawn) [Example 4138, (2S,4R)-1-(1-(5-chloro-2-((5-cyanopyridin-3-yl)methoxy)-4-((3′-(3-((R)-3-hydroxypyrrolidin-1-yl)propoxy)-2,2′-dimethyl-[1,1′-biphenyl]-3-yl)methoxy)phenyl)ethyl)-4-hydroxypyrrolidine-2-carboxylic Acid] | 0.21 to 10 |
| Cc1c(COc2cc(OCc3cncc(C#N)c3)c(CNC(C)(CO)CO)cc2Cl)cccc1-c1cccc(OCC(CO)(CO)CO)c1Cl [Example 2085, 5-((4-chloro-5-((2′-chloro-3′-(3-hydroxy-2,2-bis(hydroxymethyl)propoxy)-2-methyl-[1,1′-biphenyl]-3-yl)methoxy)-2-(((1,3-dihydroxy-2-methylpropan-2-yl)amino)methyl)phenoxy)methyl)nicotinonitrile] | 0.21 to 10 |
| Cc1c(COc2cc(OCc3cncc(C#N)c3)c(CN3CCCC[C@H]3C(=O)O)cc2Cl)cccc1-c1cccc(OC/C=C/CN2CC[C@@H](O)C2)c1 [Example 1087, (S)-1-(5-chloro-2-((5-cyanopyridin-3-yl)methoxy)-4-((3′-(((E)-4-((R)-3-hydroxypyrrolidin-1-yl)but-2-en-1-yl)oxy)-2-methyl-[1,1′-biphenyl]-3-yl)methoxy)benzyl)piperidine-2-carboxylic Acid] | 10 to 100 |
| Cc1c(COc2cc(OCc3cncc(S(C)(=O)=O)c3)c(CNC(C)(CO)C(=O)O)cc2Cl)cccc1-c1cccc(OCCCN2CCC(CO)(C(=O)O)C2)c1Cl (single isomer, unassigned) [Example 1064] | 0.21 to 10 |
| Cc1c(COc2cc(OCc3cncc(C#N)c3)c(CN[C@](C)(CO)C(=O)O)cc2Cl)cccc1-c1cccc(OCCCN2CCC(O)(CO)CC2)c1Cl [Example 2061, (R)-2-((5-chloro-4-((2′-chloro-3′-(3-(4-hydroxy-4-(hydroxymethyl)piperidin-1-yl)propoxy)-2-methyl-[1,1′-biphenyl]-3-yl)methoxy)-2-((5-cyanopyridin-3-yl)methoxy)benzyl)amino)-3-hydroxy-2-methylpropanoic Acid] | 0.21 to 10 |
| Cc1c(CCCCN2CC[C@@H](O)C2)cccc1-c1cccc(COc2cc(OCc3cncc(C#N)c3)c(CN3C[C@@H](O)C[C@H]3C(=O)O)cc2Cl)c1C [Example 4063, (2S,4S)-1-(5-chloro-2-((5-cyanopyridin-3-yl)methoxy)-4-((3′-(4-((R)-3-hydroxypyrrolidin-1-yl)butyl)-2,2′-dimethyl-[1,1′-biphenyl]-3-yl)methoxy)benzyl)-4-hydroxypyrrolidine-2-carboxylic Acid] | 0.21 to 10 |
| Cc1c(COc2cc(OCc3cncc(C#N)c3)c(CN(C)C3(C(=O)O)CC3)cc2Cl)cccc1-c1cccc(OCCCN2CC[C@@H](O)C2)c1C [Example 4134, (R)-1-((5-chloro-2-((5-cyanopyridin-3-yl)methoxy)-4-((3′-(3-(3-hydroxypyrrolidin-1-yl)propoxy)-2,2′-dimethyl-[1,1′-biphenyl]-3-yl)methoxy)benzyl)(methyl)amino)cyclopropane-1-carboxylic Acid] | 0.21 to 10 |
| Cc1c(COc2cc(OCc3cncc(C#N)c3)c(CN[C@@](C)(CO)C(=O)O)c(C)c2Cl)cccc1-c1cccc(OCCCN2CC[C@@H](O)C2)c1C [Example 4106, (S)-2-((3-chloro-6-((5-cyanopyridin-3-yl)methoxy)-4-((3′-(3-((R)-3-hydroxypyrrolidin-1-yl)propoxy)-2,2′-dimethyl-[1,1′-biphenyl]-3-yl)methoxy)-2-methylbenzyl)amino)-3-hydroxy-2-methylpropanoic Acid] | 0.21 to 10 |
| Cc1c(COc2cc(OCc3cncc(S(C)(=O)=O)c3)c(CN3CCCC[C@H]3C(=O)O)cc2Cl)cccc1-c1cccc(OCCCN2CC[C@@H](O)C2)c1C [Example 1027, (S)-1-(5-chloro-4-((3′-(3-((R)-3-hydroxypyrrolidin-1-yl)propoxy)-2,2′-dimethyl-[1,1′-biphenyl]-3-yl)methoxy)-2-((5-(methylsulfonyl)pyridin-3-yl)methoxy)benzyl)piperidine-2-carboxylic Acid] | 0.21 to 10 |
| CCC(CO)(CO)NCCCOc1cccc(-c2cccc(COc3cc(OCc4cncc(C#N)c4)c(CNC(CC)(CO)CO)cc3Cl)c2C)c1C [Example 2278, 5-((4-chloro-2-(((1-hydroxy-2-(hydroxymethyl)butan-2-yl)amino)methyl)-5-((3′-(3-((1-hydroxy-2-(hydroxymethyl)butan-2-yl)amino)propoxy)-2,2′-dimethyl-[1,1′-biphenyl]-3-yl)methoxy)phenoxy)methyl)nicotinonitrile] | 0.21 to 10 |
| Cc1cc(OCc2cccc(-c3cccc(OCCCN4CC[C@@H](O)C4)c3C)c2C)cc(OCc2cncc(C#N)c2)c1CNC(CO)(CO)CO [Example 4089, (R)-5-((2-(((1,3-dihydroxy-2-(hydroxymethyl)propan-2-yl)amino)methyl)-5-((3′-(3-(3-hydroxypyrrolidin-1-yl)propoxy)-2,2′-dimethyl-[1,1′-biphenyl]-3-yl)methoxy)-3-methylphenoxy)methyl)nicotinonitrile] | 0.21 to 10 |
| CCOC(=O)C1(CO)CCN(CCCOc2cccc(-c3cccc(COc4cc(OCc5cncc(C#N)c5)c(CN[C@](C)(CO)C(=O)O)cc4Cl)c3C)c2Cl)C1 (stereo partly drawn) [Example 1103, (2R)-2-((5-chloro-4-((2′-chloro-3′-(3-(3-(ethoxycarbonyl)-3-(hydroxymethyl)pyrrolidin-1-yl)propoxy)-2-methyl-[1,1′-biphenyl]-3-yl)methoxy)-2-((5-cyanopyridin-3-yl)methoxy)benzyl)amino)-3-hydroxy-2-methylpropanoic Acid] | 0.21 to 10 |
